“Also recorded” adds a separate entry of the source. Where two headings read alike, the source gives them in different places.
Assays:
HaCaT cells [1] = assay: cell proliferation ELISA, based on the incorporation of BrdU (Roche); parameters: species or system human; settings: for IC50: serum-free, text says μmolar range; for antiproliferative effect (in words): non cytotoxic concentrations
Procedure: (§1) The impact of glycosidation in the glycosidated phospholipid analogs was determined in serum-free cell cultures of human keratinocytes (HaCaT cells) and a squamous carcinoma cell line (SCC-25).
Ino-PAF as obtained in Example 1, Glc-PC and Glc-PAF (synthesis according to Mickeleit, M. et al., Angew. Chem. Int. Ed. Engl. 34:2667-2669 (1995) and 37:351-353 (1998)), and HePC (Hexadecylphosphocholine; commercially available as Miltefosin) were tested in the cell proliferation ELISA, BrdU (col.), Roche in an amount of from 0.6 to 5 μM. Prior to the assay the cells were kept for 2 h in serum-free keratinocyte medium. Assays were performed using 10.000 cells per test, at least quadruple testing.

HaCaT cells [2] = assay: Viability determined by the LDH assay; type: cell-based; settings: human
SCC-25 cells = assay: antiproliferative effect in squamous carcinoma cell line; type: cell-based; settings: SCC-25 tumor cells
Procedure: as §1
In SCC-25 cells the antiproliferative effects of the glycosidated phospholipid analogs is much stronger.

HaCaT cells [3] = assay: cell matrix adhesion to ECM proteins (collagen IV, fibronectin, laminin), crystal violet; type: cell-based, human; settings: for cell adhesion to extracellular matrix components fibronectin, laminin and collagen IV: treatment for 2 h; for cell matrix adhesion after incubation (summary of advantages): HePC with delayed onset of action
Procedure: In order to study the effect of Glc-PAF, Ino-PAF and Glc-PC (as specified in Example 2) on cell matrix adhesion HaCaT cells were rested 15 min at 4° C. and allowed to adhere to different ECM proteins (collagen IV, fibronectin and laminin) for 90 min at 37° C. The proteins of the extracellular matrix (ECM) were loaded onto the plastic surface by overnight treatment at 4° C. After fixing and staining in crystal violet, coloring was measured at 570 nm. Per test were used 50,000 cells, and quadruple testing was performed.

[4] = low but antiproliferative concentrations; cited from earlier work
[5] = cited from earlier work
HaCaT cells [6] = settings: literature, Schoen et al. 1996; cited from earlier work
β1-Integrin = assay: β1 integrin surface expression and clustering, immunofluorescence; type: cell-based, human; settings: HaCaT cells
Procedure: HaCaT cells were treated with Ino-PAF (obtained as described in Example 1) for 48 h. For the immunofluorescence measurement, cells were treated with 5 μM Ino-PAF. The antibody utilized for detection was directed against the β1-Integrin, which is a surface receptor conferring cell-matrix-adhesion. Immunofluorescence analysis was performed on a collagen IV matrix. 5×10^4 cells/well were left to adhere for 90 min and stained with K20-FITC (anti-β1) or Phalloidin-TRITC respectively.

HaCaT cells [7] = assay: cell proliferation ELISA, based on the incorporation of BrdU (Roche); settings: Homo sapiens, Fischer et al. unpublished data, read-out: antiproliferative effect IC50
protein kinase C (PKC) = settings: cited from earlier work

Compound	IC50 (HaCaT cells [1]; Homo sapiens) [µM]	antiproliferative effect (in words) (HaCaT cells [1])	Viability (LD50) (HaCaT cells [2])	antiproliferative effect (SCC-25 cells)	cell adhesion to extracellular matrix components fibronectin, laminin and collagen IV (HaCaT cells [3])	apoptosis [4]	water solubility [5]	IC50 (HaCaT cells [1]) [µM]	cell matrix adhesion after incubation (summary of advantages) (HaCaT cells [3])	cell matrix adhesion (HaCaT cells [6])	toxic effect LD50 (HaCaT cells [2]) [µM]	surface expression of integrins (β1-Integrin)	integrin clustering (β1-Integrin; 5 μM, 48 h)	IC50 (HaCaT cells [7]) [µM]	increase of PKC activity (protein kinase C (PKC); HaCaT cells, non-toxic concentrations)	inhibition of PKC activity in vitro (protein kinase C (PKC); high, toxic concentrations)
CCCCCCCCCCCCCCCCCCOC[C@H](COP(=O)([O-])OCC[N+](C)(C)C)O[C@H]1O[C@H](CO)[C@@H](O)[C@H](O)[C@H]1O [Glc-PAF, 1-O-octadecyl-2-O-α-D-gluco-pyranosyl-sn-glycero-3-phosphocholine]	5	inhibited cell proliferation	9	sub-μmolar range	increases cell adhesion	cause apoptosis	water-soluble									
CCCCCCCCCCCCCCCCOP(=O)([O-])OCC[N+](C)(C)C [HePC, hexadecyl-phosphocholine]								4.5	increased	reduce cell matrix adhesion						
CCCCCCCCCCCCCCCCCCOC[C@H](COP(=O)([O-])OCC[N+](C)(C)C)OCCO[C@@H]1[C@@H](O)[C@H](O)[C@@H](O)[C@H](O)[C@@H]1O [Ino-PAF, inositol-C2-PAF]	1.8	strong antiproliferative effects; also recorded: stronger antiproliferative effects than the therapeutically used HePC	15		concentration-dependent increase; also recorded: increases cell adhesion				increased		> 10	not affected	induces integrin clustering	1.7		
glyceroglucophosphocholine [Glc-PC]		strong antiproliferative effects; also recorded: inhibited cell proliferation	50				water-soluble	9							up to 70%	do not inhibit PKC activity

Reference: patent publication US7465817B2, “Inositolized phospholipids” (Charite-Universitats Medizin Berlin, priority 2002, dated 2008)
